According to US11344607B2, “Treatment of disease with relaxin” (BV Biomed Ltd, priority 2015, dated 2022):
Several values for one entry are separate records, joined by “and”; a condition that tells them apart may be missing. Equal entries are not always repeated. Entries after “also recorded” stand apart in the source; their conditions may differ. No end group written: not given here.

Key:
myelin = test: Kiernan's eriochrome cyanin stain of spinal cord for myelin; format: in vivo; conditions: EAE mice, vs untreated (loss of myelin)
Method: (§1) For alternative histology, spinal cords were formalin fixed and paraffin embedded (FFPE) as described by Canene-Adams [Canene-Adams, 2013]. Briefly, Spinal cords were rinsed in PBS to remove blood and fixed in 10% formalin for 48 hours at room temperature. Tissues were then transferred to 70% ethanol (ETOH) for 1 hour, 95% ETOH (95% ETOH/5% methanol) for 1 hour, then incubated in four absolute ETOH baths first for 1 hour, then 2 for 1½ hours, followed by a fourth for 2 hours. Tissues were then cleared with two xylene baths for 1 hour each. Tissues were then incubated in two paraffin baths at 58° C. for 1 hour each. Tissues were then removed and placed in cassettes.
(§2) The FFPE tissues were sectioned into […] slices on a microtome. Slices were transferred to glass slides and warmed to 65° C. for 20 minutes to bond the tissue to the glass.
(§3) Sections were stained with Kiernan's eriochrome cyanin for myelin [Kiernan J A, 1999], cluster of differentiation 68 (CD68) for macrophages [Holness and Simmons, 1993], neurofilaments [Alberts, B. 2002] and glial fibrillary acidic protein (GFAP) [Jacque C M, et al, 1978].
Kiernan's stain for myelin was done as described. First tissues were placed in a solution containing eriochrome cyanine R, ferric chloride and sulphuric acid in water for 20 minutes. Rinsed briefly under tap water and differentiated with aqueous ferric chloride (5.6%). […]

IL-6 = test: RT-PCR of spinal cord, IL-6 expression; format: in vivo, mice; conditions: for change of spinal cord IL-6 expression vs placebo: EAE mice, in words
Method: (§4) At 7-8 weeks of age, mice were immunized with […] emulsion (Hooke Laboratories #EK-2110 provided pre-formulated). Mice received pertussis toxin (Hooke Laboratory, Cat #EK-2110 provided lyophilized) reconstituted in phosphate buffered saline (PBS) at the time of immunization (day 0; 75 ng) and on day 2 (200 ng). Animals were scored daily for disease severity: 0=normal, 1=tail paralysis, 2=tail paralysis and strong hind limb weakness, 3=complete hind limb paralysis, 4=hind limb and forelimb paralysis, 5=found dead.
(§5) At the onset of EAE (the first day with a score of 1 or greater), subcutaneous alzet pumps (DURECT Corporation, Cupertino, Calif.) were inserted and the animals were randomly assigned to receive either porcine relaxin (SKY BioHealth, Inc., Eden Prairie, Minn., […]) or placebo treatment (1 μ/Hr PBS), either recombinant porcine relaxin (pRLN, n=8) or placebo (PBS, n=8) at a rate of 0.110/hr. Relaxin (SKY BioHealth, Inc., Eden Prairie, Minn/) was administered at a concentration of 0.25 mg/ml for the remainder of the study. This delivered a standard dose of 0.66 μg/day of pRLN, which is equivalent to the identified effective dose of 30 μg/KG body weight/day (Hasse et al, 2014). Statistical analysis was done using the t-test and P values <0.05 were considered to be statistically significant.
(§6) Spinal cords and brains were collected for RT-PCR and histopathology. Total RNA was isolated from spinal cord and brain tissue using the RNeasy mini-kit protocol (Qiagen; Valencia, Calif.) and converted to cDNA using oligo(dT), random hexamers, and Superscript RT II (Invitrogen; Grand Island, N.Y.). […]
(§7) β-actin. Alternatively RT-PCR for the chemokine receptors (CCR); CCR2, CCR5, CCR7, the interleukins (IL-6 and IL-17) were analyzed using quantitect primers (table 2) and SYBR green based RT-PCR kits (Qiagen, Valencia, Calif.). For histology, spinal cords sections were stained using luxol fast blue-periodic acid shiff for semi-quantitative analysis of infiltration and demyelination.

[1] = system: inflammation and Wallerian degeneration of the spinal cord; test: H&E staining of spinal cord; format: in vivo; conditions: EAE mice, vs untreated
Method: as §1, §2
Staining with Hematoxylin and eosin (H&E) stain was also carried out according to standard protocols.

CD68 = CD68 immunohistochemistry of spinal cord (macrophages); format: in vivo; conditions: EAE mice, vs untreated; listed as RLN
Method: as §1, §2, §3
(§8) Standard immunohistochemistry [Ramos-vara and Miller, 2014] was used to identify the presence of CD68, neurofilaments and GFAP in the FFPE tissues. Essentially the appropriate antibody directed against the antigen of choice was incubated with the tissue and allowed to bind. […]

spinal cord lesions = test: Spinal cord histology, infiltration and demyelination (lesion load); format: in vivo; conditions: EAE mice, compared to control animals, data not shown
Method: as §7

CCR7 = test: RT-PCR of spinal cord, CCR7 expression; format: in vivo, mice
Method: as §4
(§9) At the onset of EAE (the first day with a score of 1 or greater), subcutaneous alzet pumps (DURECT Corporation, Cupertino, Calif.) were inserted and the animals were randomly assigned to receive either porcine relaxin (SKY BioHealth, Inc., Eden Prairie, Minn., 66.0 μg/day) or placebo treatment (1 μ/Hr PBS), either recombinant porcine relaxin (pRLN, n=8) or placebo (PBS, n=8) at a rate of 0.110/hr. […]
as §7

CCR2 = test: RT-PCR of spinal cord, CCR2 expression; format: in vivo, mice
Method: as §4, §9, §7

GFAP = GFAP immunohistochemistry of spinal cord (gliosis); format: in vivo; conditions: EAE mice, untreated stained positive (extensive gliosis)
Method: as §1, §2, §3, §8

CCR5 = test: RT-PCR of spinal cord, CCR5 expression; format: in vivo, mice
Method: as §4, §9, §7

neurofilaments = test: Neurofilament immunohistochemistry of spinal cord; format: in vivo; conditions: EAE mice, vs untreated; listed as RLN
Method: as §1, §2, §3, §8

EAE mouse model = test: EAE disease severity, daily clinical score; format: in vivo, mice
Method: Female C57BL/6 mice were obtained and housed at Biomedical Research Models (Worcester, Mass.)
as §4, §5

IL-17 = test: RT-PCR of spinal cord, IL-17 expression; format: in vivo, mice; conditions: for change of spinal cord IL-17 expression vs placebo: EAE mice, in words
Method: as §4, §5, §6, §7

[2] = limited clinical trials (Smith 2006); cited from earlier work
IL-10 = test: RT-PCR of spinal cord, IL-10 expression; format: in vivo; conditions: EAE mice, in words (FIG. 3)
Method: as §4, §5
(§10) Spinal cords and brains were collected for RT-PCR and histopathology. […]

MIR2 = test: Spinal cord expression of MIR2; format: in vivo; conditions: EAE mice, in words (FIG. 3)
Method: as §4, §5, §10

## relaxin: porcine relaxin (SKY BioHealth, Inc.), recombinant porcine relaxin (pRLN), infused by subcutaneous alzet pump (Relaxin B chain QSTNDFIKACGRELVRLWVEICGSVSWGRTAL; Relaxin A chain RMTLSEKCCQVGCIRKDIARLC; ends and bridges not checked; cysteine pairing not given here; UniProt P01348 25-56; P01348 161-182, looked up)
myelin
  myelin in spinal cord sections: decreases myelination and increases remyelination
myelin; listed as RLN
  myelin in spinal cord sections: normal appearing myelin
IL-6
  change of spinal cord IL-6 expression vs placebo: significantly decreased
IL-6; listed as RLX
  change of spinal cord IL-6 expression vs placebo: decreased
IL-6; normalized to β-actin, EAE mice n=8, further studies (FIG. 4), p<0.05 vs placebo 0.0009
  spinal cord expression of IL-6: 0.0004 relative units
[1]
  inflammation and Wallerian degeneration of the spinal cord: decrease in inflammation and Wallerian degeneration
CD68
  macrophage infiltration of the spinal cord (CD68): greater infiltration of macrophages in the untreated samples than in those treated with RLN; also recorded: decreased macrophage infiltration
Spinal cord lesions
  lesion load and size in the spinal cord: reduced lesion load and size
CCR7; EAE mice, in words
  change of spinal cord CCR7 expression vs PBS/placebo: decreased; also recorded: significant reductions
CCR7; normalized to β-actin, EAE mice n=8, further studies (FIG. 2b), p<0.05 vs placebo 0.014
  spinal cord expression of CCR7: 0.003 relative units
CCR2; EAE mice, in words
  change of spinal cord CCR2 expression vs PBS/placebo: decreased; also recorded: significant reductions
CCR2; normalized to β-actin, EAE mice n=8, further studies (FIG. 2b), p<0.05 vs placebo
  spinal cord expression of CCR2: 0.044 relative units
GFAP
  GFAP staining of spinal cord / gliosis: complete lack of gliosis
GFAP; listed as RLN
  GFAP staining of spinal cord / gliosis: negative for GFAP; also recorded: did not stain positively for GFAP
CCR5; EAE mice, in words
  change of spinal cord CCR5 expression vs PBS/placebo: decreased; also recorded: significant reductions
CCR5; normalized to β-actin, EAE mice n=8, further studies (FIG. 2b), not significant vs placebo 0.0046
  spinal cord expression of CCR5: 0.0035 relative units
neurofilaments
  loss of neurofilament in the spinal cord: relatively greater loss of neurofilaments compared to mice receiving RLN therapy; also recorded: greater loss of neurofilament in the spinal cords of untreated mice
EAE mouse model; EAE mice, after commencing continuous infusion (FIG. 1a)
  time to marked improvement in clinical score: ≤ 3 days
EAE mouse model; EAE mice, n=8, scale 0-5, subcutaneous alzet pump from EAE onset, score 2.0 at start, placebo 1.5, listed as RLN
  clinical score at the end of treatment: 0.5 and > 0.5
EAE mouse model; EAE model animals, FIG. 1a
  change in clinical score compared to PBS control: improvement in clinical score
IL-17
  change of spinal cord IL-17 expression vs placebo: significantly decreased
IL-17; listed as RLX
  change of spinal cord IL-17 expression vs placebo: decreased
IL-17; normalized to β-actin, EAE mice n=8, further studies (FIG. 4), p<0.05 vs placebo 0.00026
  spinal cord expression of IL-17: 0.000078 relative units
[2]
  severe side effects: no severe side effects
IL-10
  change of spinal cord IL-10 expression: decreased
MIR2
  change of spinal cord MIR2 expression: increased
MIR2; listed as RLX
  change of spinal cord MIR2 expression: increased the expression of the MIR2
